Where “and” joins values, the source holds several entries; their conditions need not be identical. Identical values can stand only once.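 Exposure lasted 48 hours, with cells grown in 96-well plates and compounds tested at five concentrations. Abbreviation: GI50, concentration required for 50% inhibition of growth. TGI is the concentration that stops growth completely.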
What was measured:
Assay in all cases: NCI tumour cell line growth inhibition, 48 h
CCRF-CEM leukemia = test system: CCRF-CEM leukemia
DU-145 prostate = test system: DU-145 prostate
HCT-15 colon = test system: HCT-15 colon
MALME-3M melanoma = test system: MALME-3M melanoma
MDA-MB-231 breast = test system: MDA-MB-231 breast
NCI-H226 lung = test system: NCI-H226 lung
NCI-H23 lung = test system: NCI-H23 lung
NCI-H522 lung = test system: NCI-H522 lung
OVCAR-8 ovarian = test system: OVCAR-8 ovarian
SF-539 CNS = test system: SF-539 CNS

Row | Compound | GI50 (CCRF-CEM leukemia) | TGI (CCRF-CEM leukemia) | GI50 (DU-145 prostate) | TGI (DU-145 prostate) | GI50 (HCT-15 colon) | TGI (HCT-15 colon) | GI50 (MALME-3M melanoma) | TGI (MALME-3M melanoma) | GI50 (MDA-MB-231 breast) | TGI (MDA-MB-231 breast) | GI50 (NCI-H226 lung) | TGI (NCI-H226 lung) | GI50 (NCI-H23 lung) | TGI (NCI-H23 lung) | GI50 (NCI-H522 lung) | GI50 (OVCAR-8 ovarian) | TGI (OVCAR-8 ovarian) | GI50 (SF-539 CNS) | TGI (SF-539 CNS) | TGI (NCI-H522 lung)
1 | N#CC1=C(/N=C/c2ccccc2)Oc2c(ccc3ccccc23)C1c1ccccc1 (stereo not given) | 0.462 µM | > 100 µM | 0.735 µM | > 64.3 µM | 0.494 µM | > 100 µM | 0.67 µM | > 100 µM | 1.31 µM | 20.5 µM | 1.13 µM | > 100 µM | 0.715 µM | > 100 µM | 0.298 µM | 0.708 µM | > 100 µM | 0.335 µM | 2.06 µM | –
2 | O=C(O)CCC(=O)c1ccc2sc3ccccc3c2c1 | – | – | – | > 100 µM | – | > 100 µM | – | > 100 µM | – | > 100 µM | – | > 100 µM | – | > 100 µM | – | – | > 100 µM | – | > 100 µM | > 100 µM
3 | COc1cc(/C=C/C(=O)c2cccc(-n3cc(-c4ccc(Cl)cc4)[nH]c3=O)c2)cc(OC)c1OC | 5.43 µM | > 100 µM | 4.53 µM | 27 µM | 3.85 µM | 10.3 µM | 18.1 µM | > 100 µM | 13.8 µM | 48.6 µM | > 100 µM | > 100 µM | 3.56 µM | 16.9 µM | 4.1 µM | 3.85 µM | > 100 µM | 3.49 µM | 14.3 µM | 21.9 µM
4 | O=C1OC(C(O)CO)C(O)=C1O (stereo not given) | 239 µM and 275 µM | 576 µM and 792 µM | 1610 µM and 1690 µM | 3040 µM and 3110 µM | 1860 µM | 3450 µM and 3870 µM | 1540 µM and 1760 µM | 2990 µM and 3550 µM | 1460 µM and 1440 µM | 2820 µM and 2960 µM | 2150 µM and 4450 µM | 4870 µM and > 6830 µM | 2920 µM and > 4420 µM | > 10000 µM | 1590 µM and 293 µM | 1550 µM and 1510 µM | 3050 µM and 3190 µM | 1900 µM and 1390 µM | 3360 µM and 1830 µM | 3380 µM and > 3070 µM
5 | Cc1cc(C#Cc2ccc(C(C)(C)C)cc2)ccc1-n1c(/C=C/c2ccc(O)cc2O)nc2ccccc2c1=O | 3.85 µM | > 100 µM | 3.42 µM | 13.3 µM | 2.74 µM | 10.2 µM | 8.42 µM | 23.2 µM | 3.06 µM | 9.59 µM | 2.17 µM | 8.25 µM | 2.42 µM | 6.8 µM | 1.83 µM | 3.55 µM | 12.5 µM | 4.37 µM | 16.5 µM | 5.5 µM
6 | COc1cc2nc(-c3cc(F)ccc3O)nc(N[C@@H]3CNC[C@H]3C(C)(C)O)c2cc1OC | 2.29 µM | 7.3 µM | 1.51 µM | 2.96 µM | 1.79 µM | 3.46 µM | 1.78 µM | 3.24 µM | 1.23 µM | 2.8 µM | 1.48 µM | 4.38 µM | 1.67 µM | 3.42 µM | 1.67 µM | 1.63 µM | 3.07 µM | 1.55 µM | 3 µM | 3.11 µM
7 | OCCNC1c2cc(Cl)ccc2-c2c(Cl)cc(Cl)cc21 (stereo not given) | – | 47.4 µM | – | > 100 µM | – | > 100 µM | – | > 100 µM | – | 98.9 µM | – | > 100 µM | – | > 100 µM | – | – | > 100 µM | – | > 100 µM | > 100 µM
8 | Cc1ccc(-c2nc([P+](c3ccccc3)(c3ccccc3)c3ccccc3)c(S(=O)(=O)c3ccc(C)cc3)o2)cc1 | 0.606 µM | 6.94 µM | 1.27 µM | 2.52 µM | 1.44 µM | 3.23 µM | 1.02 µM | 2.19 µM | 1.52 µM | 2.93 µM | 5.05 µM | 24.6 µM | 1.68 µM | 3.5 µM | 1.6 µM | 1.32 µM | 4.17 µM | 1.58 µM | 2.92 µM | 3.67 µM
9 | Nc1nc(Nc2ccccc2SSc2ccccc2Nc2nc(N)nc(C(Cl)(Cl)Cl)n2)nc(C(Cl)(Cl)Cl)n1 | 3.23 µM | 14 µM | 9.57 µM | 24.4 µM | 3.89 µM | 15 µM | 5.9 µM | 18.6 µM | 3.13 µM | 10.7 µM | 3.49 µM | 15.9 µM | 3.66 µM | 13.9 µM | 2.6 µM | 5.38 µM | 24.7 µM | 11.2 µM | 24.7 µM | 10.3 µM
10 | O=C(O)c1cccc(C(=O)O)c1S(=O)Cc1ccccc1 (stereo not given) | – | – | – | > 100 µM | – | > 100 µM | – | > 100 µM | – | > 100 µM | – | > 100 µM | – | > 100 µM | – | – | > 100 µM | – | > 100 µM | > 100 µM
11 | COc1ncnc(NS(=O)(=O)c2ccc(N=C3C(=O)N(CN4CCN(c5c(F)cc6c(=O)c(C(=O)O)cn(C7CC7)c6c5OC)CC4C)c4ccc(Br)cc43)cc2)c1OC (stereo not given) | – | – | 10.9 µM | 37.3 µM | 4.73 µM | > 50 µM | – | – | 9.42 µM | 25.4 µM | 15.3 µM | > 50 µM | 8.79 µM | 27 µM | 31 µM | 15.3 µM | > 50 µM | 7.53 µM | 22.1 µM | > 50 µM
12 | COC(=O)c1cc2c(cc1Cl)SC1=NN(C)C(N(C)C)N1S2(=O)=O (stereo not given) | > 100 µM | > 100 µM | > 100 µM | > 100 µM | > 100 µM | > 100 µM | > 100 µM | > 100 µM | > 100 µM | > 100 µM | > 100 µM | > 100 µM | > 100 µM | > 100 µM | > 100 µM | > 100 µM | > 100 µM | > 100 µM | > 100 µM | > 100 µM
13 | O=C1c2sccc2-c2cccc3cccc1c23 (tested in a mixture with another compound) | – | 12.8 µM | – | 7.03 µM | – | 24.9 µM | – | 9.06 µM | – | 54.3 µM | – | 33.9 µM | – | – | – | – | 36.4 µM | – | 32.2 µM | 57.1 µM
14 | CCc1cccc(C)c1NC(=O)c1sc2nc3c(cc2c1N)C(=O)CCC3 | 0.407 µM | > 35.4 µM | 0.514 µM | > 100 µM | 0.495 µM | > 100 µM | 0.685 µM | 98.8 µM | 1.42 µM | > 100 µM | 13 µM | > 100 µM | 0.732 µM | > 100 µM | 0.234 µM | 2.21 µM | > 91.7 µM | – | – | 3.82 µM

Reference: PubChem BioAssay (NCI)
